In US12115193B2, “Methods of using RARγ agonists for cancer treatment” (Io Therapeutics, Inc., priority 2021, dated 2024):

Legend:
EMT6 cells [1] = test: EMT6 in vitro culture viability, Cell Titer Glo Assay; type: cell-based, mouse; settings: 5 days; for IC50: Mus musculus, 120 h
Description: EMT6 cells were cultured in vitro for 5 days the presence of a multiple concentrations of the RARγ agonists GA1E, GA2E, and GA3Ep and viability assessed by the Cell Titer Glo Assay® (Promega).

RARγ = target: T1, RARγ (Homo sapiens, UniProt P13631); test: RARγ transactivation assay (luciferase reporter); type: cell-based
T1 construct: expression plasmids encoding the full-length receptors RARα and RARγ; expressed in transfected cells
T1 sequence (P13631 1-454): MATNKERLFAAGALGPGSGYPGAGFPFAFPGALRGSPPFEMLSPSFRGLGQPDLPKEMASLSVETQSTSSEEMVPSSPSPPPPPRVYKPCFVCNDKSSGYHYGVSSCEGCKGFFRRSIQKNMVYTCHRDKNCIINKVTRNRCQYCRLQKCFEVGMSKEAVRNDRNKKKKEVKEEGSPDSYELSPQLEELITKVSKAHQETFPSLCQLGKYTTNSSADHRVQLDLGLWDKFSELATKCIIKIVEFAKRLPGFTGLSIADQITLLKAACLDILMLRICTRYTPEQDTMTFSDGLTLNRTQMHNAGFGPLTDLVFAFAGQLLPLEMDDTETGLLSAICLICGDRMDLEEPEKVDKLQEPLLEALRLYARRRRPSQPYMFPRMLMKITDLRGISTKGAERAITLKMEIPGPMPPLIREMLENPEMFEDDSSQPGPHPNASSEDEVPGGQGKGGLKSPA
Description: Transactivation assays were conducted to test the specificity of binding activity of GA1E and GA2E for RARα and RARγ. Retinoic acid receptor transactivation activity and binding efficiencies were determined essentially as described in U.S. Pat. Nos. 5,298,429 and 5,071,773, incorporated by reference herein for all they teach regarding transactivation assays. Transactivation assays employed expression plasmids encoding the full-length receptors RARα and RARγ. Reporter plasmids containing the herpes virus thymidine kinase promoter and the appropriate retinoic acid receptor response element (RAREs) were positioned upstream of an open coding region encoding firefly luciferase.
The ability of GA1E and GA2E to activate RARα and RARγ in a transactivation assay was tested over a concentration range of 0.5 to 625 nM (GA2E) or 0.05 to 3320 nM (GA1E). GA1E induced less than 10% transactivation for RARα across the whole concentration range, but over 50% transactivation for RARγ at concentrations ≥25 nM and over 70% at concentrations 125 nM (FIG. 3A). GA2E induced more than 85% transactivation at all tested concentrations and less than 10% transactivation of RARα at concentrations of ≤25 nM (FIG. 3B).

[2] = test system: Lewis lung carcinoma (LLC) cells; test: Lewis lung carcinoma in vitro culture viability, Cell Titer Glo Assay; type: cell-based, mouse; settings: for IC50: Mus musculus, Lewis lung carcinoma
Description: Lewis lung carcinoma (LLC) cells were cultured in vitro the presence of a multiple concentrations of the RARγ agonists GA1E, GA2E, and GA3Ep and viability assessed by the Cell Titer Glo Assay®.

PBMC = test: CMV recall antigen-stimulated PBMC: IFNγ production and CFSE proliferation; type: cell-based; settings: four days, vs vehicle control; for IFNγ production: 0.1 to 1000 nM; for Proliferation of CD8+ cells (CFSE dilution): increase small
Description: Peripheral blood mononuclear cells (PBMC) from a cytomegalovirus (CMV)-positive donor were labeled with carboxyfluorescein succinimidyl ester (CFSE) and stimulated with CMV recall antigens at […]. The PBMC were then treated with one of three difference RARγ selective agonists or vehicle (DMSO) control and incubated at 37° C., 5% CO2 for four days. Culture supernatant was harvested and assayed for IFNγ production and the PBMC evaluated for proliferation by flow cytometry for CFSE dilution.
CFSE is a fluorescent reactive cell membrane permeable dye. After it is taken up, CFSE covalently modifies proteins and is retained in cells for long periods of time. The CFSE-modified proteins are generally evenly divided between daughter cells at each division so that fluorescent intensity of the cells falls by have at each division. Thus diminution of the dye's fluorescent signal can be used as a measure of proliferation.

EMT6 cells [3] = test: EMT6 syngeneic mouse model of triple negative breast cancer (Example 3); type: in vivo; settings: 21 daily oral doses 10 mg/kg; at the end of the study
Description: The RARγ agonists tazarotenic acid and GA2E were evaluated in the EMT6 syngeneic mouse model of breast cancer. 5×10^5 EMT6 cells were injected into the mammary fat pad of immunocompetent female Balb/c mice. When the tumors reached an average volume of 50-150 mm^3, mice were matched by tumor size into control or treatment groups (n=10-11).
The mice were treated with 21 daily oral doses 10 mg/kg of 1 mg/ml tazarotenic acid or GA2E, or vehicle control, starting on Day 0. Tumor volume was measured, and the mice weighed, on days 0, 1, 3, 6, 8, 10, 13, 15, 17, 20, and 21.

TIL in EMT6 tumors = test: Flow cytometry of excised EMT6 tumors (Example 4); type: in vivo, mouse
Source text: At the end of the study of Example 3, the tumors were excised, the cells disaggregated and dispersed without use of proteases, stained with various agents, and subjected to flow cytometry. FIG. 5A-B present the results of the flow cytometry both as a percentage of cells and as the number of cells per tumor. […] Of these live cells, a substantial proportion were leukocytes (FIG. 5A, “CD45” panels). […] The majority of the T cells were CD4+(FIG. 5A, “CD4” panels), expected to be predominantly helper cells. Of the CD4^+ cells, only small proportions were T memory cells (expected to be predominantly TH1 memory cells) based on intracellular staining for IFNγ (FIG. 5B, “TH IFGγ” panels), TH17 cells based in intracellular staining for IL-17 (FIG. 5B, “TH IL17” panels), or Treg cell based on staining for CD25 and FoxP3 (FIG. 5B, “Treg” panels). About 25-30% of the T cells were CD8^+ (FIG. 5B, “CD8 T” panels), expected to be predominantly cytotoxic cells.

transactivation for RARγ (RARγ; at concentrations 125 nM) | transactivation for RARγ (RARγ; at concentrations ≥25 nM) | SMILES | effect on viability as concentrations exceeded 10 μM (EMT6 cells [1]) | effect on viability at concentrations below 1 μM (EMT6 cells [1]) | IC50 (EMT6 cells [1]) [µM] | effect on viability as concentrations exceeded 10 μM [2] | effect on viability at concentrations below 1 μM [2] | IC50 [2] [µM] | IFNγ production (PBMC) | Proliferation of CD8+ cells (CFSE dilution) (PBMC) | tumor growth inhibition (EMT6 cells [3]) [%] | T cells (anti-CD3) as mean percentage of the leukocytes in the tumor (TIL in EMT6 tumors; 10 mg/kg oral daily, end of study) [%] | proportion of CD8+ T cells that were memory cells (intracellular IFNγ) (TIL in EMT6 tumors; vs vehicle control, did not achieve statistical significance)
over 70% | over 50% | CCc1oc2ccc(C(/C=C/c3ccc(C(=O)O)cc3F)=N/O)cc2c1C(C)(C)C [GA1E, 4-((1E,3E)-3-(3-(tert-butyl)-2-ethyl-benzofuran-5-yl)-3-(hydroxyimino)prop-1-en-1-yl)-3-fluorobenzoic acid] | rapidly became toxic | no effect | 52 | rapidly became toxic | no effect | 96 | – | – | – | – | –
– | – | CC1(C)CCC(C)(C)c2cc(C(/C=C/c3ccc(C(=O)O)cc3)=N/O)ccc21 [GA3Ep] | rapidly became toxic | no effect | 101 | rapidly became toxic | no effect | 45 | increased IFNγ production substantially | increased | – | – | –
– | – | CC1(C)CCSc2ccc(C#Cc3ccc(C(=O)O)cn3)cc21 [tazarotenic acid, reference compound] | – | – | – | – | – | – | increased IFNγ production substantially | increased | 44 | ~10 | numerically increased
